Legend:
Peregrin (Homo sapiens) = target: T1, Peregrin (Homo sapiens) (UniProt P55201); settings: Compound concentration 20.0 uM, Protein concentration 2.0 uM, Result type QC Liability
T1 sequence (whole entry): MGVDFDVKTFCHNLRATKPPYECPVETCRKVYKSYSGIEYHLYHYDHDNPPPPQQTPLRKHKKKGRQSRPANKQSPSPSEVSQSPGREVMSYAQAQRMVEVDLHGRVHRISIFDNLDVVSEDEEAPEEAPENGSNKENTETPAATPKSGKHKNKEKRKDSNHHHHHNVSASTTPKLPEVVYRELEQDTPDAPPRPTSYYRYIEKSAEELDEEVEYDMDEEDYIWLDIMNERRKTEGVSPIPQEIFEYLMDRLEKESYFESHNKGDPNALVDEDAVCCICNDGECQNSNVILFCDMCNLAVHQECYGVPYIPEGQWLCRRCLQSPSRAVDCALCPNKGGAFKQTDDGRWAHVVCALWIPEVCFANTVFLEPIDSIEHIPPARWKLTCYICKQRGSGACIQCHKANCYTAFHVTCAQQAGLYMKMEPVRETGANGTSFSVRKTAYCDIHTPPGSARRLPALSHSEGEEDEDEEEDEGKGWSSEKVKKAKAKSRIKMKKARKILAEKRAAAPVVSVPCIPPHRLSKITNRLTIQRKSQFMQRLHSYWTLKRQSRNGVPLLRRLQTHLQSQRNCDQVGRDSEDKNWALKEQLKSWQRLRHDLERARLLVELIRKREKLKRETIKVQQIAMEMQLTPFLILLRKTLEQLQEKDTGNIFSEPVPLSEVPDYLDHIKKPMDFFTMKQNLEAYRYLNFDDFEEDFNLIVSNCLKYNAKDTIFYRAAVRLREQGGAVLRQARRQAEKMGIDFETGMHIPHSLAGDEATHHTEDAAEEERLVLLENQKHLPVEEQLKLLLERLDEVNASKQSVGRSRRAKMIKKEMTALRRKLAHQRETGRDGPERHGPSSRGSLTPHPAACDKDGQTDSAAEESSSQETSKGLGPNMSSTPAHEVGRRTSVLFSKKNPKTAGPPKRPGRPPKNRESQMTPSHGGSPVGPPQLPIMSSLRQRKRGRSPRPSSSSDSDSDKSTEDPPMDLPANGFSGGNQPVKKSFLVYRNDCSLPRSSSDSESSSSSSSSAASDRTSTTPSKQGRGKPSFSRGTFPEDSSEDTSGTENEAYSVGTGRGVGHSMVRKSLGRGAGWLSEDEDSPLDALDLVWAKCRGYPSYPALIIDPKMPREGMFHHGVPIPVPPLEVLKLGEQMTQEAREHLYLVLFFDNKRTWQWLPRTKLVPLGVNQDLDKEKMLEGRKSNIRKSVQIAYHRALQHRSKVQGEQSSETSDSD

[1] = target: Fibroblast growth factor receptor 3 (Homo sapiens) (UniProt P22607); settings: Compound concentration 20.0 uM, Protein concentration 2.0 uM, Result type QC Liability
Chain of Fibroblast growth factor receptor 3 (Homo sapiens) (P22607 23-806 limits assumed): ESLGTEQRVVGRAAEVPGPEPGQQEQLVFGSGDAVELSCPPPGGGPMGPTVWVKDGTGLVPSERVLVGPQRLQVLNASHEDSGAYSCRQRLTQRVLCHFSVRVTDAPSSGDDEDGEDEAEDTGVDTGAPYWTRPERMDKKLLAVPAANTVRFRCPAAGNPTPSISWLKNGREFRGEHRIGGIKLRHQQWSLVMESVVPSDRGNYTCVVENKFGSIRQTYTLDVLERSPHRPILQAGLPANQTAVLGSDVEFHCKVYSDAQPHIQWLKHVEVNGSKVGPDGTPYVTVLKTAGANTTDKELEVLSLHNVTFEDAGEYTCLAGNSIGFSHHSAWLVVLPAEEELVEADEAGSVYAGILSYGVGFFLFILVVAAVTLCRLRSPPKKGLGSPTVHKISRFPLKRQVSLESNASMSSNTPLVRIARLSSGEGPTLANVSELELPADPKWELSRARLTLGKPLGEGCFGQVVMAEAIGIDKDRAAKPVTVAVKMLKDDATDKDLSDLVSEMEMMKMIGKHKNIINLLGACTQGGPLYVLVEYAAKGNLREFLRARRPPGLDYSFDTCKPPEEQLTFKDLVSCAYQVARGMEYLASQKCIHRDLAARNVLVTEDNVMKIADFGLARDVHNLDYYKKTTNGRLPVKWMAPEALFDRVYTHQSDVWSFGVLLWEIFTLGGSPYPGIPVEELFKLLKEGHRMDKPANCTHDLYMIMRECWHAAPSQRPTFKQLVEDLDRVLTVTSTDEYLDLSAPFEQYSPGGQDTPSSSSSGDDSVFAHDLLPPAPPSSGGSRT

CCN(CC)CCO[C@H]1CC[C@@]2(C)C(=CC[C@@H]3[C@@H]2CC[C@]2(C)C(=O)CC[C@@H]32)C1
ΔTm (Peregrin (Homo sapiens)): -0.77 °C
ΔTm [1]: 0.44 °C

CNC(=O)COc1cc2cc(Nc3nc(N4CCC(C(=O)N(C)C)CC4)ncc3Cl)cc(OC)c2n(C)c1=O
ΔTm (Peregrin (Homo sapiens)): -2.49 °C
ΔTm [1]: 0.39 °C

COc1cc2nc(-c3cc(F)ccc3O)nc(N[C@@H]3CNC[C@H]3C(C)(C)O)c2cc1OC
ΔTm (Peregrin (Homo sapiens)): 0.34 °C
ΔTm [1]: 1.8 °C

CCCCc1oc2ccccc2c1C(=O)c1cc(I)c(OCCN(CC)CC)c(I)c1
ΔTm (Peregrin (Homo sapiens)): -1.31 °C
ΔTm [1]: 0.79 °C

O=C(Nc1ccccc1C(=O)O)c1cc(S(=O)(=O)c2ccccc2)ccc1Cl
ΔTm (Peregrin (Homo sapiens)): -3.6 °C
ΔTm [1]: 0.83 °C

N=C(N)NCCC[C@H](NC(=O)CC1(CC(=O)N2CCN(C3c4ccccc4NC(=O)c4ccccc43)CC2)CCCC1)C(=O)NCCn1c(=O)n(-c2ccccc2)n(-c2ccccc2)c1=O (stereo partly specified)
ΔTm (Peregrin (Homo sapiens)): -2.29 °C
ΔTm [1]: -5.62 °C

CN1CCc2cc(Nc3ncc(C(F)(F)F)c(NCc4cc[nH]n4)n3)ccc2C1
ΔTm (Peregrin (Homo sapiens)): -1.01 °C
ΔTm [1]: 8.22 °C

C=CC(=O)Nc1ccc2[nH]c(=O)n(C3CCN(Cc4ccc(-c5ccc6c(c5)NC(=O)CO6)cc4)CC3)c2c1
ΔTm (Peregrin (Homo sapiens)): -0.12 °C
ΔTm [1]: 0.37 °C

CN(C)C(=O)Cn1cc(-c2nc(C3(c4ccc(-c5cnc(N)nc5)cc4)CC3)no2)cn1
ΔTm (Peregrin (Homo sapiens)): -2.76 °C
ΔTm [1]: 0.55 °C

CCC(=O)N[C@H]1CC[C@@H](C(=O)N(C)c2ccc(-c3nc4ccccc4o3)cc2)C1
ΔTm (Peregrin (Homo sapiens)): -2.71 °C
ΔTm [1]: 0.8 °C

NCC1CCC(CNc2nc(NCc3ccccc3OC(F)(F)F)ncc2[N+](=O)[O-])CC1 (stereo unspecified)
ΔTm (Peregrin (Homo sapiens)): 0.06 °C
ΔTm [1]: 0.5 °C

CNc1nc(-c2ccc3c(N)n[nH]c3c2)cc(N2C[C@@H](C(=O)NC3CCCCC3)CC[C@H]2C)n1
ΔTm (Peregrin (Homo sapiens)): -2.05 °C
ΔTm [1]: 2.13 °C

C[C@@H]1OCC2(CCN(c3cnc(Sc4ccnc(N)c4Cl)c(N)n3)CC2)[C@@H]1N
ΔTm (Peregrin (Homo sapiens)): -1.53 °C
ΔTm [1]: 0.48 °C

O=C(NCc1ccc(F)cc1)C1CCN(S(=O)(=O)c2cc(Cl)cc(Cl)c2)CC1
ΔTm (Peregrin (Homo sapiens)): -1.81 °C
ΔTm [1]: 0.9 °C

COc1ccc(OC(=O)N(CC(=O)O)Cc2ccc(OCCc3nc(-c4ccccc4)oc3C)cc2)cc1
ΔTm (Peregrin (Homo sapiens)): -1.99 °C
ΔTm [1]: 0.89 °C

O=C(NC[C@@H]1[C@H]2CN(C(=O)OCc3cc(C(F)(F)F)cc(C(F)(F)F)c3)C[C@@H]12)c1ccc2[nH]nnc2c1
ΔTm (Peregrin (Homo sapiens)): -0.49 °C
ΔTm [1]: 1.51 °C

COc1cccc(-c2c(C)c(Cc3c(F)cccc3C(F)(F)F)c3n(c2=O)[C@@H]([C@@H](N)c2ccccc2)CS3)c1F
ΔTm (Peregrin (Homo sapiens)): -4.1 °C
ΔTm [1]: -2.84 °C

CN1CCN(c2ccc(-n3cc(-c4ccncc4OCC4CCNCC4)cn3)cc2)CC1
ΔTm (Peregrin (Homo sapiens)): -0.97 °C
ΔTm [1]: 1.33 °C

COc1cc(C)c(S(=O)(=O)N(C)CCC(=O)N[C@H]2CC[C@@H](N3CCC4CN(C)CC4C3)CC2)c(C)c1 (stereo partly specified)
ΔTm (Peregrin (Homo sapiens)): -3.59 °C
ΔTm [1]: 1.1 °C

COc1cc(CN(CCN)C(=O)N[C@@H](C)c2ccccc2)ccc1OCc1ccccc1
ΔTm (Peregrin (Homo sapiens)): -2.05 °C
ΔTm [1]: 0.47 °C

NCc1ccc(OCCCc2sc(-c3ccc4c(c3)/C(=N/Nc3nc5ccccc5s3)CCC4)nc2C(=O)O)cc1
ΔTm (Peregrin (Homo sapiens)): -3.06 °C
ΔTm [1]: 0.58 °C

COc1c(NC(=O)c2cc3cccc(Oc4ccnc(C(=O)N5CCN(C)CC5)c4)c3n2C)cc(C(C)(C)C)cc1NS(C)(=O)=O
ΔTm (Peregrin (Homo sapiens)): -2.38 °C
ΔTm [1]: 1.12 °C

O=c1cc(C2CCNCC2)n2nc3cccc(Cl)c3c2[nH]1
ΔTm (Peregrin (Homo sapiens)): -1.18 °C
ΔTm [1]: 0.45 °C

CN1C(=O)c2ccccc2N(C)c2nc(Nc3cnn(C4CCNCC4)c3)ncc21
ΔTm (Peregrin (Homo sapiens)): -0.9 °C
ΔTm [1]: 6.58 °C

Cc1ccc(C(=O)Nc2cc(N3CCN(C)CC3)cc(C(F)(F)F)c2)cc1-n1cc(-c2cnn(C)c2C)nn1
ΔTm (Peregrin (Homo sapiens)): -0.61 °C
ΔTm [1]: 3.8 °C

Cc1cn([C@@H](C)CC#N)c(=O)c2cc(Cn3nc(C(F)F)cc3Cl)nn12
ΔTm (Peregrin (Homo sapiens)): -1.08 °C
ΔTm [1]: 0.93 °C

COCCCS(=O)(=O)c1cc(C)c(-c2ccc(F)c3c2CC[C@H]3Oc2ccc3c(c2)OC[C@H]3CC(=O)O)c(C)c1
ΔTm (Peregrin (Homo sapiens)): -4.61 °C
ΔTm [1]: 0.81 °C

O=C(CNCc1cc2ccccc2[nH]1)N[C@H]1CC[C@@H](c2nc3ccccc3[nH]2)CC1
ΔTm (Peregrin (Homo sapiens)): 0.07 °C
ΔTm [1]: 0.46 °C

O=C(Nc1cccc(Nc2nccc(Nc3cccc(C(F)(F)F)c3)n2)c1)C1CC1
ΔTm (Peregrin (Homo sapiens)): 0.79 °C
ΔTm [1]: 3.3 °C

CCN1C(=O)C(c2cccc(C(=O)O)c2)C(=O)N(c2ccccc2)c2cc(C(F)(F)F)ccc21 (stereo unspecified)
ΔTm (Peregrin (Homo sapiens)): -1.55 °C
ΔTm [1]: 0.62 °C

O=C(CCSCc1ccco1)NNC(=O)N1Cc2ccccc2Oc2ccc(Cl)cc21
ΔTm (Peregrin (Homo sapiens)): -3.17 °C
ΔTm [1]: 0.24 °C

CCN(CC)C(=O)C1CN2CCc3cc(OC)c(OC)cc3C2CC1OC(C)=O (stereo unspecified)
ΔTm (Peregrin (Homo sapiens)): -2.07 °C
ΔTm [1]: 0.43 °C

COc1cc(N2CCN(C)CC2)ccc1Nc1ncc2c(n1)N(C)c1ccccc1C(=O)N2CC(F)(F)F
ΔTm (Peregrin (Homo sapiens)): -2.22 °C
ΔTm [1]: 0.22 °C

Nc1nc(-c2nn(Cc3ccccc3F)c3ncccc23)ncc1C1CC1
ΔTm (Peregrin (Homo sapiens)): -2.28 °C
ΔTm [1]: 1.14 °C

COc1ccc(-n2nc(C(F)(F)F)cc2-c2ccc(Cl)cc2)cc1
ΔTm (Peregrin (Homo sapiens)): -3.19 °C
ΔTm [1]: 0.81 °C

C=C(F)C(=O)N1CCN(c2nc(OC[C@@H]3CCCN3C)nc3c2CCN(c2cccc4cccc(Cl)c24)C3)C[C@@H]1CC#N
ΔTm (Peregrin (Homo sapiens)): -3.96 °C
ΔTm [1]: 0.12 °C

CSc1ccc(C[C@@H](C)C(=O)O)cc1Nc1nc(N2CC[C@H](N(C)C)C2)cc(C(F)F)c1C#N
ΔTm (Peregrin (Homo sapiens)): -2.68 °C
ΔTm [1]: 0.35 °C

COc1cc(-c2cncc(-c3ccc(N4CCN(C(C)C)CC4)cc3)c2C)cc(F)c1C(N)=O
ΔTm (Peregrin (Homo sapiens)): -1.51 °C
ΔTm [1]: 0.64 °C

CS(=O)(=O)c1cc(C2(NC(=O)c3cncc4c3cnn4-c3ccc(F)cc3)CC2)ccn1
ΔTm (Peregrin (Homo sapiens)): -2.04 °C
ΔTm [1]: 0.85 °C

Cc1ncsc1-c1ccc(CNC(=O)[C@@H]2C[C@@H](O)CN2C(=O)[C@@H](NC(=O)CCCCNC(=O)c2ccc(-c3ccc(N4CCN(C)CC4)c(NC(=O)c4c[nH]c(=O)cc4C(F)(F)F)c3)cc2)C(C)(C)C)cc1
ΔTm (Peregrin (Homo sapiens)): 1.18 °C
ΔTm [1]: -2.23 °C

COc1ccc2c(O[C@@H]3C[C@H]4C(=O)N[C@]5(C(=O)O)CC5/C=C\CCCCC[C@H](NC(=O)OC5CCCC5)C(=O)N4C3)cc(-c3csc(NC(=O)C(C)C)n3)nc2c1C (stereo partly specified)
ΔTm (Peregrin (Homo sapiens)): -1.17 °C [middle of 4 runs]
ΔTm [1]: 1.07 °C [middle of 4 runs]

CCO[C@@H](Cc1ccc(OCCc2ccc(OS(C)(=O)=O)cc2)cc1)C(=O)O
ΔTm (Peregrin (Homo sapiens)): -1.83 °C
ΔTm [1]: 0.52 °C

O=C(O)CCC/C=C\C[C@@H]1[C@@H](/C=C/[C@@H](O)COc2cccc(C(F)(F)F)c2)[C@H](O)C[C@@H]1O
ΔTm (Peregrin (Homo sapiens)): -2.28 °C
ΔTm [1]: 0.51 °C

CC[C@H](CO)Nc1nc(Nc2cccc(-c3ccccn3)c2)c2ncn(C(C)C)c2n1
ΔTm (Peregrin (Homo sapiens)): -2.18 °C
ΔTm [1]: 2.78 °C

CCN(C(=O)c1cc(F)ccc1Oc1cncnc1N1CC2(CCN(C[C@H]3CC[C@H](NS(=O)(=O)CC)CC3)CC2)C1)C(C)C
ΔTm (Peregrin (Homo sapiens)): -0.92 °C
ΔTm [1]: 0.56 °C

Cc1ccc(-c2cn3nc(C(=O)NC4(c5ccc(F)cc5)CN(C)C4)c(C(C)C)c3c(=O)[nH]2)cc1C
ΔTm (Peregrin (Homo sapiens)): -2.45 °C
ΔTm [1]: 0.62 °C

Cc1cccc(CC(=O)N2CCc3c2ccc(-c2cn(C)c4ncnc(N)c24)c3F)n1
ΔTm (Peregrin (Homo sapiens)): -2.12 °C
ΔTm [1]: -0.88 °C

Cc1cc(S(=O)(=O)N2CC(C)(C)c3cc(-c4ccc(C(F)(F)F)cc4)ccc32)ccc1OCC(=O)O
ΔTm (Peregrin (Homo sapiens)): -7.85 °C
ΔTm [1]: 0.47 °C

Cc1nnc2n1-c1sc3c(c1C(c1ccccc1Cl)=NC2)CC(C(=O)N1CCOCC1)C3 (stereo unspecified)
ΔTm (Peregrin (Homo sapiens)): -1.83 °C
ΔTm [1]: 0.52 °C

CC(C)(C)c1cnc(CSc2cnc(NC(=O)C3CCNCC3)s2)o1
ΔTm (Peregrin (Homo sapiens)): -1.47 °C
ΔTm [1]: 0.5 °C

CC(C)(O)c1coc(S(=O)(=O)NC(=O)Nc2c3c(cc4c2CCC4)CCC3)c1
ΔTm (Peregrin (Homo sapiens)): -2.87 °C
ΔTm [1]: 0.84 °C

NC(=O)C1CCCc2c1[nH]c1ccc(Cl)cc21 (stereo unspecified)
ΔTm (Peregrin (Homo sapiens)): -0.12 °C
ΔTm [1]: 0.98 °C

O=C(Nc1cc2cc[nH]c(=O)c2cc1Cl)[C@H]1CNC[C@@H]1c1cccnc1
ΔTm (Peregrin (Homo sapiens)): -0.61 °C
ΔTm [1]: 0.4 °C

C/C(=C\C(=O)Nc1ccccc1C(=O)O)c1ccc2ccccc2c1
ΔTm (Peregrin (Homo sapiens)): -1.56 °C
ΔTm [1]: 1.14 °C

CO[C@H]1CC[C@H](N(c2cc(F)c(Oc3ncc(Cn4nccn4)cc3C(F)(F)F)cc2C(=O)O)C(=O)[C@H]2CC[C@H](C)CC2)CC1
ΔTm (Peregrin (Homo sapiens)): -4.09 °C
ΔTm [1]: 0.62 °C

Cc1cc(CN(CC(=O)Nc2ccc(Cl)cc2Cl)C2CCCCC2)ccc1OCC(=O)O
ΔTm (Peregrin (Homo sapiens)): -6.07 °C
ΔTm [1]: -0.33 °C

COc1cc(-c2cncc(-c3cnn(C4CCNCC4)c3)c2)cc(OC)c1OC
ΔTm (Peregrin (Homo sapiens)): -0.73 °C
ΔTm [1]: 0.93 °C

CCc1cnn2c(NCc3ccc[n+]([O-])c3)cc(N3CCCCC3CCO)nc12 (stereo unspecified)
ΔTm (Peregrin (Homo sapiens)): -1.7 °C
ΔTm [1]: 1.49 °C

Source: ChEMBL document CHEMBL5308504, “Tm Shift (DSF) assay results for EUbOPEN Chemogenomics Library” (2023)
